Measurements taken from PMC12310023 (PLOS Neglected Tropical Diseases, 2025).

Test system: NLuc-expressing C. parvum
Test: NLuc C. parvum IFNγ-KO mouse infection model, oocyst shedding
Type: in vivo

CC(C)(CO)Cn1nc(-c2ccc3cc(OC4CC4)ccc3c2)c(C(N)=O)c1N [compound 1708]
RLU standardized by fecal weight (15 mg/kg x 3 days, group I, day 6 p.i., Cp Mouse Efficacy 2): 251957 RLU
RLU standardized by fecal weight (15 mg/kg x 3 days, group I, day 7 p.i., Cp Mouse Efficacy 2): 85920 RLU
RLU standardized by fecal weight (15 mg/kg x 3 days, group I, day 8 p.i., Cp Mouse Efficacy 2): 79354 RLU
RLU standardized by fecal weight (15 mg/kg x 3 days, group I, day 9 p.i., Cp Mouse Efficacy 2): 5065 RLU
RLU standardized by fecal weight (15 mg/kg x 3 days, group I, day 10 p.i., Cp Mouse Efficacy 2): 1311 RLU
RLU standardized by fecal weight (15 mg/kg x 3 days, group I, day 13 p.i., Cp Mouse Efficacy 2): 474 RLU
RLU standardized by fecal weight (15 mg/kg x 3 days, group I, day 15 p.i., Cp Mouse Efficacy 2): 57 RLU
RLU standardized by fecal weight (15 mg/kg x 3 days, group I, day 17 p.i., Cp Mouse Efficacy 2): 57 RLU
RLU standardized by fecal weight (15 mg/kg x 3 days, group I, day 20 p.i., Cp Mouse Efficacy 2): 227 RLU
RLU Raw (30 mg/kg QD x3, group G, Day 6, Cp Mouse Efficacy 1): 1295216 RLU
RLU Raw (30 mg/kg QD x3, group G, Day 7, Cp Mouse Efficacy 1): 1222624 RLU
RLU Raw (30 mg/kg QD x3, group G, Day 8, Cp Mouse Efficacy 1): 619376 RLU
RLU Raw (30 mg/kg QD x3, group G, Day 9, Cp Mouse Efficacy 1): 66208 RLU
RLU Raw (30 mg/kg QD x3, group G, Day 10, Cp Mouse Efficacy 1): 17152 RLU
RLU Raw (30 mg/kg QD x3, group G, Day 13, Cp Mouse Efficacy 1): 2912 RLU
RLU Raw (30 mg/kg QD x3, group G, Day 15, Cp Mouse Efficacy 1): 4896 RLU
RLU Raw (30 mg/kg QD x3, group G, Day 17, Cp Mouse Efficacy 1): 1792 RLU
RLU Raw (30 mg/kg QD x3, group G, Day 20, Cp Mouse Efficacy 1): 7008 RLU
RLU standardized by fecal weight (30 mg/kg QD x3, group G, day 6 p.i., Cp Mouse Efficacy 1): 182425 RLU
RLU standardized by fecal weight (30 mg/kg QD x3, group G, day 7 p.i., Cp Mouse Efficacy 1): 166343 RLU
RLU standardized by fecal weight (30 mg/kg QD x3, group G, day 8 p.i., Cp Mouse Efficacy 1): 154844 RLU
RLU standardized by fecal weight (30 mg/kg QD x3, group G, day 9 p.i., Cp Mouse Efficacy 1): 14087 RLU
RLU standardized by fecal weight (30 mg/kg QD x3, group G, day 10 p.i., Cp Mouse Efficacy 1): 2907 RLU
RLU standardized by fecal weight (30 mg/kg QD x3, group G, day 13 p.i., Cp Mouse Efficacy 1): 391 RLU
RLU standardized by fecal weight (30 mg/kg QD x3, group G, day 15 p.i., Cp Mouse Efficacy 1): 401 RLU
RLU standardized by fecal weight (30 mg/kg QD x3, group G, day 17 p.i., Cp Mouse Efficacy 1): 224 RLU
RLU standardized by fecal weight (30 mg/kg QD x3, group G, day 20 p.i., Cp Mouse Efficacy 1): 904 RLU
RLU Raw (30 mg/kg x 1 days, group F, Day 6, Cp Mouse Efficacy 2): 255712 RLU
RLU Raw (30 mg/kg x 1 days, group F, Day 7, Cp Mouse Efficacy 2): 157696 RLU
RLU Raw (30 mg/kg x 1 days, group F, Day 8, Cp Mouse Efficacy 2): 335600 RLU
RLU Raw (30 mg/kg x 1 days, group F, Day 9, Cp Mouse Efficacy 2): 101760 RLU
RLU Raw (30 mg/kg x 1 days, group F, Day 10, Cp Mouse Efficacy 2): 181040 RLU
RLU Raw (30 mg/kg x 1 days, group F, Day 13, Cp Mouse Efficacy 2): 15056 RLU
RLU Raw (30 mg/kg x 1 days, group F, Day 15, Cp Mouse Efficacy 2): 22080 RLU
RLU Raw (30 mg/kg x 1 days, group F, Day 17, Cp Mouse Efficacy 2): 4144 RLU
RLU Raw (30 mg/kg x 1 days, group F, Day 20, Cp Mouse Efficacy 2): 2768 RLU
RLU standardized by fecal weight (30 mg/kg x 1 days, group F, day 6 p.i., Cp Mouse Efficacy 2): 39645 RLU
RLU standardized by fecal weight (30 mg/kg x 1 days, group F, day 7 p.i., Cp Mouse Efficacy 2): 24640 RLU
RLU standardized by fecal weight (30 mg/kg x 1 days, group F, day 8 p.i., Cp Mouse Efficacy 2): 55471 RLU
RLU standardized by fecal weight (30 mg/kg x 1 days, group F, day 9 p.i., Cp Mouse Efficacy 2): 16820 RLU
RLU standardized by fecal weight (30 mg/kg x 1 days, group F, day 10 p.i., Cp Mouse Efficacy 2): 20342 RLU
RLU standardized by fecal weight (30 mg/kg x 1 days, group F, day 13 p.i., Cp Mouse Efficacy 2): 2841 RLU
RLU standardized by fecal weight (30 mg/kg x 1 days, group F, day 15 p.i., Cp Mouse Efficacy 2): 3046 RLU
RLU standardized by fecal weight (30 mg/kg x 1 days, group F, day 17 p.i., Cp Mouse Efficacy 2): 975 RLU
RLU standardized by fecal weight (30 mg/kg x 1 days, group F, day 20 p.i., Cp Mouse Efficacy 2): 410 RLU
RLU Raw (60 mg/kg QD x3, group F, Day 6, Cp Mouse Efficacy 1): 2614768 RLU
RLU Raw (60 mg/kg QD x3, group F, Day 7, Cp Mouse Efficacy 1): 2391472 RLU
RLU Raw (60 mg/kg QD x3, group F, Day 8, Cp Mouse Efficacy 1): 411984 RLU
RLU Raw (60 mg/kg QD x3, group F, Day 9, Cp Mouse Efficacy 1): 18336 RLU
RLU Raw (60 mg/kg QD x3, group F, Day 10, Cp Mouse Efficacy 1): 2272 RLU
RLU Raw (60 mg/kg QD x3, group F, Day 13, Cp Mouse Efficacy 1): 576 RLU
RLU Raw (60 mg/kg QD x3, group F, Day 15, Cp Mouse Efficacy 1): 304 RLU
RLU Raw (60 mg/kg QD x3, group F, Day 17, Cp Mouse Efficacy 1): 144 RLU
RLU Raw (60 mg/kg QD x3, group F, Day 20, Cp Mouse Efficacy 1): 224 RLU
RLU standardized by fecal weight (60 mg/kg QD x3, group F, day 6 p.i., Cp Mouse Efficacy 1): 261477 RLU
RLU standardized by fecal weight (60 mg/kg QD x3, group F, day 7 p.i., Cp Mouse Efficacy 1): 201812 RLU
RLU standardized by fecal weight (60 mg/kg QD x3, group F, day 8 p.i., Cp Mouse Efficacy 1): 45026 RLU
RLU standardized by fecal weight (60 mg/kg QD x3, group F, day 9 p.i., Cp Mouse Efficacy 1): 3245 RLU
RLU standardized by fecal weight (60 mg/kg QD x3, group F, day 10 p.i., Cp Mouse Efficacy 1): 215 RLU
RLU standardized by fecal weight (60 mg/kg QD x3, group F, day 13 p.i., Cp Mouse Efficacy 1): 93 RLU
RLU standardized by fecal weight (60 mg/kg QD x3, group F, day 15 p.i., Cp Mouse Efficacy 1): 78 RLU
RLU standardized by fecal weight (60 mg/kg QD x3, group F, day 17 p.i., Cp Mouse Efficacy 1): 33 RLU
RLU standardized by fecal weight (60 mg/kg QD x3, group F, day 20 p.i., Cp Mouse Efficacy 1): 67 RLU
RLU Raw (60 mg/kg x 1 day, group E, Day 6, Cp Mouse Efficacy 2): 814080 RLU
RLU Raw (60 mg/kg x 1 day, group E, Day 7, Cp Mouse Efficacy 2): 339152 RLU
RLU Raw (60 mg/kg x 1 day, group E, Day 8, Cp Mouse Efficacy 2): 54176 RLU
RLU Raw (60 mg/kg x 1 day, group E, Day 9, Cp Mouse Efficacy 2): 52848 RLU
RLU Raw (60 mg/kg x 1 day, group E, Day 10, Cp Mouse Efficacy 2): 91232 RLU
RLU Raw (60 mg/kg x 1 day, group E, Day 13, Cp Mouse Efficacy 2): 5456 RLU
RLU Raw (60 mg/kg x 1 day, group E, Day 15, Cp Mouse Efficacy 2): 4592 RLU
RLU Raw (60 mg/kg x 1 day, group E, Day 17, Cp Mouse Efficacy 2): 5520 RLU
RLU Raw (60 mg/kg x 1 day, group E, Day 20, Cp Mouse Efficacy 2): 2336 RLU
RLU standardized by fecal weight (60 mg/kg x 1 day, group E, day 6 p.i., Cp Mouse Efficacy 2): 144085 RLU
RLU standardized by fecal weight (60 mg/kg x 1 day, group E, day 7 p.i., Cp Mouse Efficacy 2): 44625 RLU
RLU standardized by fecal weight (60 mg/kg x 1 day, group E, day 8 p.i., Cp Mouse Efficacy 2): 11405 RLU
RLU standardized by fecal weight (60 mg/kg x 1 day, group E, day 9 p.i., Cp Mouse Efficacy 2): 12435 RLU
RLU standardized by fecal weight (60 mg/kg x 1 day, group E, day 10 p.i., Cp Mouse Efficacy 2): 12329 RLU
RLU standardized by fecal weight (60 mg/kg x 1 day, group E, day 13 p.i., Cp Mouse Efficacy 2): 774 RLU
RLU standardized by fecal weight (60 mg/kg x 1 day, group E, day 15 p.i., Cp Mouse Efficacy 2): 399 RLU
RLU standardized by fecal weight (60 mg/kg x 1 day, group E, day 17 p.i., Cp Mouse Efficacy 2): 726 RLU
RLU standardized by fecal weight (60 mg/kg x 1 day, group E, day 20 p.i., Cp Mouse Efficacy 2): 525 RLU
